Data reported in US8309341B2, “2-mercaptocyclopentanecarboxylic acid compounds, a process for their preparation and pharmaceutical compositions containing them” (Les Laboratories Server, priority 2009, dated 2012).
Where a name gives a salt, the structure may show the parent alone.

Target: T1, TAFIa (purified human TAFI activated by thrombin-thrombomodulin complex) (Homo sapiens, UniProt Q96IY4)
T1 construct: purchased American Diagnostica TAFI Activity Kit (catalogue number not given)
T1 sequence (Q96IY4 115-423): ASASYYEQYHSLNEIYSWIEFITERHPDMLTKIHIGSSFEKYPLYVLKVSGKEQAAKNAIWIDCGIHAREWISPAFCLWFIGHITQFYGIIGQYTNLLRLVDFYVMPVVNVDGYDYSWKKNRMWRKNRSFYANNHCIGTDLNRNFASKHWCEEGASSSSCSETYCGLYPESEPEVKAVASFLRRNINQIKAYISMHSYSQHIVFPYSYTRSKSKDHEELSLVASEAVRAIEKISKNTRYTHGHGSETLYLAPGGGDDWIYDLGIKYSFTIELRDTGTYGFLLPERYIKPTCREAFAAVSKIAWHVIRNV
Assay: Inhibition of TAFIa (chromogenic substrate, TAFI Activity Kit)
Type: biochemical
Details: 3.2 nM TAFIa; compound incubated 5 minutes at 20° C., chromogenic substrate 30 minutes at 37° C., OD at 490 nm; read-out: IC50 (concentration which inhibits 50% of the enzymatic activity of TAFIa)
Experimental: Purified human TAFI (25 ng) is activated by adding thrombin-thrombomodulin complex in the presence of calcium chloride. After incubating for 20 minutes at 20° C., the reaction is stopped by adding the irreversible thrombin inhibitor PPACK (TAFI Activity Kit, American Diagnostica).
The compound under test is added to the (3.2 nM) TAFIa solution and incubated for 5 minutes at 20° C. A chromogenic TAFIa substrate is added and then incubated for 30 minutes at 37° C. The enzymatic reaction is stopped by adding sulphuric acid (TAFI Activity Kit, American Diagnostica). The optical density (OD) of the solution is measured at 490 nm with the aid of a spectrophotometer (Spectramax, Molecular Devices). The OD value of a well containing the reagents without the TAFI is subtracted from each of the OD values measured. The percentage inhibition of TAFIa at a given concentration of the compound under test is determined using the following formula: % inhibition=100−[(OD of compound×100)/OD of carrier]
The concentration of compound of the invention which inhibits 50% of the enzymatic activity of TAFIa (IC50) is calculated from the inhibition percentages of the OD values measured for increasing concentrations of the compound under test using non-linear regression according to a sigmoidal four-parameter equation (effect-dose).

SMILES	IC50
O=C(O)[C@@]1(CC2CCNCC2)CCC[C@H]1S (single isomer, unassigned) [Example 13, 2-Mercapto-1-(piperidin-4-ylmethyl)-cyclopentanecarboxylic acid trifluoroacetate (racemic cis diastereoisomer)]	184 ± 22 nM
NCCC[C@@]1(C(=O)O)CCC[C@@H]1S [Example 1, (1R,2S)-1-(3-Aminopropyl)-2-mercaptocyclopentanecarboxylic acid trifluoroacetate]	6.7 ± 0.6 nM
NCCCC1(C(=O)O)CCCC1S (single isomer, unassigned) [Example 6, 1-(3-Aminopropyl)-2-mercaptocyclopentanecarboxylic acid trifluoroacetate (racemic cis diastereoisomer)]	14 ± 2 nM
CC(=O)S[C@H]1CCC[C@@]1(CCCN)C(=O)O [Example 2, (1R,2S)-2-Acetylthio-1-(3-aminopropyl)-cyclopentanecarboxylic acid hydrochloride]	22 ± 6 nM
NCCC[C@@]1(C(=O)O)CCC[C@@H]1S [Example 3, (1R,2S)-1-(3-Aminopropyl)-2-mercaptocyclopentanecarboxylic acid hydrochloride]	7.4 ± 1.1 nM
NCCC[C@@]1(C(=O)O)CCC[C@@H]1SS[C@H]1CCC[C@@]1(CCCN)C(=O)O [Example 20, (1R,2S,1′R,2′S)-2,2′-Disulphanediylbis[1-(3-aminopropyl)cyclopentane-carboxylic acid]dihydrochloride]	186 ± 26 nM
NCCCC[C@]1(C(=O)O)CCC[C@H]1S (single isomer, unassigned; enantiomer 2) [Example 10, 1-(4-Aminobutyl)-2-mercaptocyclopentanecarboxylic acid trifluoroacetate (cis diastereoisomer, enantiomer 2)]	81 ± 16 nM
NCCCCC1(C(=O)O)CCCC1S (single isomer, unassigned) [Example 8, 1-(4-Aminobutyl)-2-mercaptocyclopentanecarboxylic acid trifluoroacetate (racemic cis diastereoisomer)]	178 ± 11 nM
